According to patent US7268128B2, “1,3,5-trisubstituted-5-phenyl and 5-pyridyl pyrazolopyrimidinone derivatives having PDE7 inhibiting action” (Ausbio Pharma Co., Ltd., priority 2001, dated 2007):

target: T1, PDE7 (type VII phosphodiesterase) (Homo sapiens, UniProt Q13946); test: PDE7 inhibiting activity (3H-cAMP hydrolysis, active fraction from MOLT-4 cells); type: biochemical; conditions: PDE7 fraction from MOLT-4 cells, 0.064 μM cAMP, 10 μM rolipram present, 2 hours at 25° C.; read-out: IC50 values for phosphodiesterase inhibiting activities (PDE7)
T1 construct: endogenous in cells; host or cells: MOLT-4 (ATCC CRL-1582), soluble fraction, HiTrapQ anion-exchange fraction
In short: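 PDE7 from MOLT-4 cell soluble fraction, HiTrapQ NaCl-gradient purified. Compounds reacted 2 h at 25° C in 20 mM tris-HCl pH 7.5, 1 mM MgCl2, 0.1 μCi 3H-cAMP (0.064 μM cAMP), 10 μM rolipram, 5′-nucleotidase; QAE-Sephadex-separated supernatant counted.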

T1 sequence (Q13946 whole entry): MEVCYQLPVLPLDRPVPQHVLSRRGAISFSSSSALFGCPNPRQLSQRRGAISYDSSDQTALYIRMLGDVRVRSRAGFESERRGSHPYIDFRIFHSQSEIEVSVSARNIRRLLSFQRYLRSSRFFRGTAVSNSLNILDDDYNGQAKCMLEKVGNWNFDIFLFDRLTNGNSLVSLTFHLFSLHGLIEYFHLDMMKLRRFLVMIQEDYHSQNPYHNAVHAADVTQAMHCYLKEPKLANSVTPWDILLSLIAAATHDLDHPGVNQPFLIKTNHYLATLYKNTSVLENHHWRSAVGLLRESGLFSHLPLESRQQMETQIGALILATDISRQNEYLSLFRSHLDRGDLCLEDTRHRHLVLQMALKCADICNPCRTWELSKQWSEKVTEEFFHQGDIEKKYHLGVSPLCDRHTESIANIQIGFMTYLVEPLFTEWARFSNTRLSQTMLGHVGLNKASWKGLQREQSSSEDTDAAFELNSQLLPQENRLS

Compound | IC50
COc1cc(N(C)CCN(C)C)ccc1-c1nc2c(c(C3CCCCC3)nn2C)c(=O)[nH]1 [Example 132, 3-Cyclohexyl-6-{4-[[2-(dimethylamino)ethyl](methyl)amino]-2-methoxyphenyl}-1-methyl-1,5-dihydro-4H-pyrazolo[3,4-d]pyrimidin-4-one monomethanesulfonate] | ≤ 0.01 µM
COc1cc(NC2CCN(C)CC2)ccc1-c1nc2c(C)nn(C3CCCCC3)c2c(=O)[nH]1 [Example 232, 1-Cyclohexyl-5-{2-methoxy-4-[(1-methyl-4-piperidinyl)amino]phenyl}-3-methyl-1,6-dihydro-7H-pyrazolo[4,3-d]pyrimidin-7-one] | ≤ 0.01 µM
COc1cc(S(=O)(=O)NCCN(C)C)ccc1-c1nc2c(C)nn(C3CCCCC3)c2c(=O)[nH]1 [Example 211, 4-(1-Cyclohexyl-3-methyl-7-oxo-6,7-dihydro-1H-pyrazolo[4,3-d]pyrimidin-5-yl)-N-[2-(dimethylamino)ethyl]-3-methoxybenzenesulfonamide] | ≤ 1 µM
COc1cc(S(=O)(=O)N(C)CCN(C)C)ccc1-c1nc2c(c(C3CCCCC3)nn2C)c(=O)[nH]1 [Example 158, 4-(3-Cyclohexyl-1-methyl-4-oxo-4,5-dihydro-1H-pyrazolo[3,4-d]pyrimidin-6-yl)-N-(2-(dimethylamino)ethyl)-3-methoxy-N-methylbenzenesulfonamide monomethanesulfonate] | ≤ 1 µM
COc1cc([N+](=O)[O-])ccc1-c1nc2c(C)nn(C3CCCCC3)c2c(=O)[nH]1 [Example 8, 1-Cyclohexyl-5-(2-methoxy-4-nitrophenyl)-3-methyl-1,6-dihydro-7H-pyrazolo[4,3-d]pyrimidin-7-one] | ≤ 1 µM
CCOc1cc(S(=O)(=O)N2CCCN(C)CC2)ccc1-c1nc2c(C)nn(C3CCCCC3)c2c(=O)[nH]1 [Example 256, 1-Cyclohexyl-5-{2-ethoxy-4-[(4-methyl-1,4-diazepan-1-yl)sulfonyl]phenyl}-3-methyl-1,6-dihydro-7H-pyrazolo[4,3-d]pyrimidin-7-one] | ≤ 1 µM
COc1cc(NC2CCOCC2)ccc1-c1nc2c(C)nn(C3CCCCC3)c2c(=O)[nH]1 [Example 242, 1-Cyclohexyl-5-[2-methoxy-4-(tetrahydro-2H-pyran-4-ylamino)phenyl]-3-methyl-1,6-dihydro-7H-pyrazolo[4,3-d]pyrimidin-7-one] | ≤ 1 µM
Cc1nn(C2CCCCC2)c2c(=O)[nH]c(-c3ccc(N4CCC(O)CC4)cc3)nc12 [Example 14, 1-Cyclohexyl-5-[4-(4-hydroxy-1-piperidinyl)phenyl]-3-methyl-1,6-dihydro-7H-pyrazolo[4,3-d]pyrimidin-7-one] | ≤ 1 µM
CNCCN(C)S(=O)(=O)c1ccc(-c2nc3c(C)nn(C4CCCCC4)c3c(=O)[nH]2)c(OC)c1 [Example 212, 4-(1-Cyclohexyl-3-methyl-7-oxo-6,7-dihydro-1H-pyrazolo[4,3-d]pyrimidin-5-yl)-3-methoxy-N-methyl-N-[2-(methylamino)ethyl]benzenesulfonamide] | ≤ 1 µM
COc1cc(CN2CCC(C(=O)O)CC2)ccc1-c1nc2c(C)nn(C3CCCCC3)c2c(=O)[nH]1 [Example 239, 1-[4-(1-Cyclohexyl-3-methyl-7-oxo-6,7-dihydro-1H-pyrazolo[4,3-d]pyrimidin-5-yl)-3-methoxybenzyl]-4-piperidinecarboxylic acid] | ≤ 1 µM
COc1cc(N(C)C(C)=O)ccc1-c1nc2c(c(C3CCCCC3)nn2C)c(=O)[nH]1 [Example 146, N-[4-(3-cyclohexyl-1-methyl-4-oxo-4,5-dihydro-1H-pyrazolo[3,4-d]pyrimidin-6-yl)-3-methoxyphenyl]-N-methylacetamide] | ≤ 1 µM

Continued, values first:

IC50 | Compound
≤ 0.01 µM | COc1cc(NC(=O)N2CCOCC2)ccc1-c1nc2c(c(C3CCCCC3)nn2C)c(=O)[nH]1 [Example 148, N-[4-(3-cyclohexyl-1-methyl-4-oxo-4,5-dihydro-1H-pyrazolo[3,4-d]pyrimidin-6-yl)-3-methoxyphenyl]-4-morpholinecarboxamide]
≤ 1 µM | CCn1nc(C2CCCCC2)c2c(=O)[nH]c(-c3ccc(N4CCN(C)CC4)cc3OC)nc21 [Example 194, 3-Cyclohexyl-1-ethyl-6-[2-methoxy-4-(4-methyl-1-piperazinyl)phenyl]-1,5-dihydro-4H-pyrazolo[3,4-d]pyrimidin-4-one]
≤ 1 µM | COc1cc(C(=O)O)ccc1-c1nc2c(c(C3CCCCC3)nn2C)c(=O)[nH]1 [Example 65, 4-(3-Cyclohexyl-1-methyl-4-oxo-4,5-dihydro-1H-pyrazolo[3,4-d]pyrimidin-6-yl)-3-methoxybenzoic acid]
≤ 0.01 µM | COc1cc(N)ccc1-c1nc2c(c(C3CCCCC3)nn2C)c(=O)[nH]1 [Example 44, 6-(4-Amino-2-methoxyphenyl)-3-cyclohexyl-1-methyl-1,5-dihydro-4H-pyrazolo[3,4-d]pyrimidin-4-one]
≤ 1 µM | COc1cc(N2CCSCC2)ccc1-c1nc2c(c(C3CCCCC3)nn2C)c(=O)[nH]1 [Example 176, 3-Cyclohexyl-6-[2-methoxy-4-(4-thiomorpholinyl)phenyl]-1-methyl-1,5-dihydro-4H-pyrazolo[3,4-d]pyrimidin-4-one]
